# Laboratory results as given in article PMC11864979, “First-in-class ultralong-target-residence-time p38α inhibitors as a mitosis-targeted therapy for colorectal cancer” (Nature Cancer, 2025).
# Where two headings read alike, the source gives them in different places.
# Tests used:
# Test in all cases: selectivity profiling in a panel of 340 wild-type kinases (Reaction Biology Europe)
# Format in all cases: binding
# 340 wild-type kinases [1] = target: T1, 340 wild-type kinases (Homo sapiens, UniProt Q13976)
# T1 construct: purchased Reaction Biology Europe
# T1 sequence (Q13976 1-671): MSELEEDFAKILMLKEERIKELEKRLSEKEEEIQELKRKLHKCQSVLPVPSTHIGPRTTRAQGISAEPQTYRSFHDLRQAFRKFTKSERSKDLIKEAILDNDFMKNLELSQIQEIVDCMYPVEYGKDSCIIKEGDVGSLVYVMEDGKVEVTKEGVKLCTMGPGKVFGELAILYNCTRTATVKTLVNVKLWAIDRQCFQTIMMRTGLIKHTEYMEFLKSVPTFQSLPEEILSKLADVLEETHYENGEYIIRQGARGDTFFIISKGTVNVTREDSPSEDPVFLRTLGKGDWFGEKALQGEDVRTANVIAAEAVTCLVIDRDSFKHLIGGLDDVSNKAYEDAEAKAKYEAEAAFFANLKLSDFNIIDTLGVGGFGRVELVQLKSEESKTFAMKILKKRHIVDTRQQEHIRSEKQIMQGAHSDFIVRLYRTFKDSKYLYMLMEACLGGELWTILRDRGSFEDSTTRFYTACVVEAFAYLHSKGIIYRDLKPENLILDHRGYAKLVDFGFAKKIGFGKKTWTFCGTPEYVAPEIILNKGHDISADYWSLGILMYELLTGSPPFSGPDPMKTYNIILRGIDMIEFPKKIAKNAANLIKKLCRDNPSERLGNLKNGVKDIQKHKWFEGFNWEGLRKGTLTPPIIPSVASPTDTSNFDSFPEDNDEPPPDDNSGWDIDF
# 340 wild-type kinases [2] = target: T2, 340 wild-type kinases (Homo sapiens, UniProt Q15139)
# T2 construct: purchased Reaction Biology Europe
# T2 sequence (Q15139 1-912): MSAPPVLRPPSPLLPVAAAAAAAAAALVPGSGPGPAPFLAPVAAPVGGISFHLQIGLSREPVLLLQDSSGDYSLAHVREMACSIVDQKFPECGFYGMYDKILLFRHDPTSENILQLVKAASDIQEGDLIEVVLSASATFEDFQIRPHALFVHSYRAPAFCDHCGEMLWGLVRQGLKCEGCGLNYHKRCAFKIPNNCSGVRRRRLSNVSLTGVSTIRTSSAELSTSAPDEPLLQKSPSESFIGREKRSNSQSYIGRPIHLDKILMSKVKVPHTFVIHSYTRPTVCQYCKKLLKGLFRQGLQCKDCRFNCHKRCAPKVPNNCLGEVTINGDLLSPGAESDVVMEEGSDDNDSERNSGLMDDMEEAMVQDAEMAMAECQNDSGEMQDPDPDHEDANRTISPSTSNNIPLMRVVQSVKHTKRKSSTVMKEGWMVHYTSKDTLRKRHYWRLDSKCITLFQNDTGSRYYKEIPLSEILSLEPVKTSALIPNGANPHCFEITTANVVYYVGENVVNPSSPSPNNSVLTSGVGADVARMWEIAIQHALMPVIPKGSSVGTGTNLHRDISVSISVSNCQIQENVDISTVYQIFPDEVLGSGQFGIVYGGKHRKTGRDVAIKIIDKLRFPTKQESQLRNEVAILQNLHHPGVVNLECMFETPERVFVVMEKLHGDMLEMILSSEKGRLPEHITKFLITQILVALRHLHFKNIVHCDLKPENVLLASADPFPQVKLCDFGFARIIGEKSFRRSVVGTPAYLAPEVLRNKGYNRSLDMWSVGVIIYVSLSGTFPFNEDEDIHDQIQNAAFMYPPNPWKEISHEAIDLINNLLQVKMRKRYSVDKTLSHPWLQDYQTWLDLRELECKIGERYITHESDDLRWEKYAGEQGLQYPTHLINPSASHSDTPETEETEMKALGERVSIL
# 340 wild-type kinases [3] = target: T3, 340 wild-type kinases (Homo sapiens, UniProt P53667)
# T3 construct: purchased Reaction Biology Europe
# T3 sequence (P53667 whole entry): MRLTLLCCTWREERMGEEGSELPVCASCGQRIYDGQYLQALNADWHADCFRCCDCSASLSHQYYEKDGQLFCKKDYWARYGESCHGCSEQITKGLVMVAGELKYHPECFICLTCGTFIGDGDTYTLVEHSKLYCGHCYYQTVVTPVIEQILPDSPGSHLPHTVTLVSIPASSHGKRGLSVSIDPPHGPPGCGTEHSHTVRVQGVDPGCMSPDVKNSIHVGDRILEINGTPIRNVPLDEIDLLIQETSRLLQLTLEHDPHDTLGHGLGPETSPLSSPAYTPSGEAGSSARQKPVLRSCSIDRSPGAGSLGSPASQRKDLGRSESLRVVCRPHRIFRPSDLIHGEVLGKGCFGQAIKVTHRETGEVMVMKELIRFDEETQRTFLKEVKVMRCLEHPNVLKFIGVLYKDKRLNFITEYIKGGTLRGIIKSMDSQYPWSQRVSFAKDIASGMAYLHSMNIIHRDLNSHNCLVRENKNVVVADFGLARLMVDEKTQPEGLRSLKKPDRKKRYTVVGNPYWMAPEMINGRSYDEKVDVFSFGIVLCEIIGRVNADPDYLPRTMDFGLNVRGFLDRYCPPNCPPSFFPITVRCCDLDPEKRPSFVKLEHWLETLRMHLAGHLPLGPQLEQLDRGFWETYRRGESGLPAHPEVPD
# 340 wild-type kinases [4] = target: T4, 340 wild-type kinases (Homo sapiens, UniProt P24941)
# T4 construct: purchased Reaction Biology Europe
smiles,measurement,setting,value
CNC(=O)c1ccc2c(c1)C(=O)c1ccc(Nc3ccc(F)c(NC(=O)C4CC4)c3)cc1CC2 [Compound 2015],remaining activity at 0.2 µM,"340 wild-type kinases [1]; 0.2 µM 2015, read-out: PRKG1 residual activity",106%
same,remaining activity at 1 µM,"340 wild-type kinases [1]; 1 µM 2015, read-out: PRKG1 residual activity",104%
same,remaining activity at 0.2 µM,"340 wild-type kinases [1]; PRKG1, 0.2 µM, read-out: residual activity",106%
same,remaining activity at 1 µM,"340 wild-type kinases [1]; PRKG1, 1 µM, read-out: residual activity",104%
same,remaining activity at 0.2 µM,"340 wild-type kinases [2]; 0.2 µM 2015, read-out: PKCmu residual activity",98.1%
same,remaining activity at 1 µM,"340 wild-type kinases [2]; 1 µM 2015, read-out: PKCmu residual activity",95.1%
same,remaining activity at 0.2 µM,"340 wild-type kinases [2]; PKCmu, 0.2 µM, read-out: residual activity",98.1%
same,remaining activity at 1 µM,"340 wild-type kinases [2]; PKCmu, 1 µM, read-out: residual activity",95.1%
same,remaining activity at 0.2 µM,"340 wild-type kinases [3]; 0.2 µM 2015, read-out: LIMK1 residual activity",102%
same,remaining activity at 1 µM,"340 wild-type kinases [3]; 1 µM 2015, read-out: LIMK1 residual activity",92.9%
same,remaining activity at 0.2 µM,"340 wild-type kinases [3]; LIMK1, 0.2 µM, read-out: residual activity",102%
same,remaining activity at 1 µM,"340 wild-type kinases [3]; LIMK1, 1 µM, read-out: residual activity",92.9%
same,remaining activity at 0.2 µM,"340 wild-type kinases [4]; 0.2 µM 2015, read-out: CDK2/CycA2 residual activity",92.5%
same,remaining activity at 0.2 µM,"340 wild-type kinases [4]; 0.2 µM 2015, read-out: CDK2/CycD1 residual activity",90.3%
same,remaining activity at 0.2 µM,"340 wild-type kinases [4]; 0.2 µM 2015, read-out: CDK2/CycE1 residual activity",121%
same,remaining activity at 1 µM,"340 wild-type kinases [4]; 1 µM 2015, read-out: CDK2/CycA2 residual activity",87.2%
same,remaining activity at 1 µM,"340 wild-type kinases [4]; 1 µM 2015, read-out: CDK2/CycD1 residual activity",96.5%
same,remaining activity at 1 µM,"340 wild-type kinases [4]; 1 µM 2015, read-out: CDK2/CycE1 residual activity",109%
same,remaining activity at 0.2 µM,"340 wild-type kinases [4]; CDK2/CycA2, 0.2 µM, read-out: residual activity",92.5%
same,remaining activity at 1 µM,"340 wild-type kinases [4]; CDK2/CycA2, 1 µM, read-out: residual activity",87.2%
same,remaining activity at 0.2 µM,"340 wild-type kinases [4]; CDK2/CycD1, 0.2 µM, read-out: residual activity",90.3%
same,remaining activity at 1 µM,"340 wild-type kinases [4]; CDK2/CycD1, 1 µM, read-out: residual activity",96.5%
same,remaining activity at 0.2 µM,"340 wild-type kinases [4]; CDK2/CycE1, 0.2 µM, read-out: residual activity",121%
same,remaining activity at 1 µM,"340 wild-type kinases [4]; CDK2/CycE1, 1 µM, read-out: residual activity",109%
